Where a SMILES comes first, the peptide text is derived from it. Where no end group is shown, it is not given here. [ ]: non-standard residue; d: D form.

The first assay addresses monoclonal antibody D32.39. Briefly: competition binding experiment with radiolabelled tracer peptide on D32.39-coated wells. Particulars: competition with 33P-labelled tracer LRRASLGGGRRQFKVVT 50 pM; wells coated with D32.39 0.1 μg/mL; 2 hr at 4° C.; IC50 taken as close to Kd. As to the method:
The binding affinities of various peptides for the monoclonal antibody D32.39 were measured in a competition binding experiment. […] The peptide mixtures were added to polystyrene wells coated with D32.39 (0.1 μg/mL). Samples were incubated 2 hr. at 4° C., the wells washed with PBS, and the radioactivity associated with each well was counted and used to generate a competitive binding curve. Under the conditions of the assay the IC50 should be close to the dissociation constant (Kd) for the peptide.
As for `CC(=O)N[C@@H](CCC(N)=O)C(=O)N[C@@H](C(=O)N[C@@H](CCCNC(=N)N)C(=O)N[C@@H](CCC(N)=O)C(=O)N[C@@H](Cc1ccccc1)C(=O)N[C@@H](CCCCN)C(=O)N[C@H](C(=O)N[C@H](C(=O)O)[C@@H](C)O)[C@@H](C)O)C(C)C` [QvRQFKTT] (Ac-Q[dV]RQFKTT-OH), the Kd was 16 nM.

QQFKVVQT yielded a Kd of 370 nM. `CC(=O)N[C@H](C(=O)N[C@@H](Cc1ccccc1)C(=O)N[C@@H](CCCNC(=N)N)C(=O)N[C@@H](C(=O)N[C@@H](Cc1ccccc1)C(=O)N[C@@H](CCCNC(=N)N)C(=O)N[C@H](C(=O)N[C@H](C(=O)O)[C@@H](C)O)C(C)C)C(C)C)[C@@H](C)O` [TFRvFRVT] (Ac-TFR[dV]FRVT-OH) returned a Kd of 1400 nM.

The compound RQFRTVQT had a Kd of 76 nM. On the same count and under the same terms, as for TTRRFRVT, the figure is 4.3 nM. On the same count and under the same terms, with `CC(=O)N[C@H](C(=O)N[C@@H](CCC(N)=O)C(=O)N[C@@H](Cc1ccccc1)C(=O)N[C@@H](CCCCN)C(=O)N[C@H](C(=O)N[C@H](C(=O)N[C@@H](CCCCN)C(=O)N[C@H](C(=O)O)[C@@H](C)O)[C@@H](C)O)C(C)C)[C@@H](C)O` [TQFKVTKT] (Ac-TQFKVTKT-OH) the figure was 560 nM; with KQFKVTQT, 410 nM. The same measure, in the same setting: as for `CC(=O)N[C@H](C(=O)N[C@@H](Cc1ccccc1)C(=O)N[C@@H](CCCNC(=N)N)C(=O)N[C@@H](CCC(N)=O)C(=O)N[C@@H](Cc1ccccc1)C(=O)N[C@@H](CCCCN)C(=O)N[C@H](C(=O)N[C@H](C(=O)O)[C@@H](C)O)C(C)C)[C@@H](C)O` [TFRQFKVT] (Ac-TFRQFKVT-OH), the figure is 0.29 nM; as for `CC(=O)N[C@@H](CCCCN)C(=O)N[C@@H](CCC(N)=O)C(=O)N[C@@H](Cc1ccccc1)C(=O)N[C@@H](CCCCN)C(=O)N[C@H](C(=O)N[C@H](C(=O)N[C@@H](CCCCN)C(=O)N[C@H](C(=O)O)[C@@H](C)O)[C@@H](C)O)C(C)C` [KQFKVTKT] (Ac-KQFKVTKT-OH), 340 nM; as for TVRQFKTT, 8.8 nM.

In another assay the test system is anti-dynorphin B mAb D32.39. Description: flow cytometry (FACS) staining of beads with mAb D32.39 and phycoerythrin-conjugated second antibody. Format: binding, mouse. Particulars: 10 μm beads carrying peptide and 69-mer oligonucleotide tag; blank beads unstained. The protocol: The binding of mAb D32.39 to control beads and to the bead library was analyzed by flow cytometry. […] By contrast, only a small fraction of the encoded library bound D32.39. Analysis of 10^5 events indicated ~2% of the library stained above background levels. […] The amplification reactions contained dUTP and uracil DNA glycosidase to prevent carryover contamination with soluble product from previous amplifications (see Longo et al., 1990, Gene 93: 125-128, incorporated herein by reference).
A portion of a library (typically 0.5-2 mg of beads) was suspended in blocking buffer (PBS, 1% BSA, 0.05% Tween-20) and incubated at room temperature for 1 hr. The beads were pelleted by centrifugation and resuspended in a solution of mAb D32.39 ([…] in blocking buffer). The suspension was incubated on ice for 30 min., pelleted by centrifugation, and washed with blocking buffer. The beads were then suspended in a solution of phycoerythrin-conjugated goat anti-mouse antibody (Molecular Probes) for 20 min. on ice. The beads were washed in blocking buffer and diluted in PBS for delivery into the fluorescence activated cell sorting (FACS) instrument (Becton Dickinson FACStar Plus). Beads which had bound the mAb D32.39 were identified by their acquired fluorescence. Individual beads from both the most brightly stained 0.17% of the library and from the region having the lowest fluorescence (ca. 98%) were sorted into PCR microfuge vials. Specific binding of D32.39 to the beads was blocked by preincubation of the mAb with the soluble peptide Ac-RQFKVVT-OH (SEQ ID NO:2) at a final concentration of 10 μM.
With “RQFKVVT (RQFKVVT-NH2) [H-Arg-Gln-Phe-Lys-Val-Val-Thr-NH2, C-terminal seven amino acid fragment of the opioid peptide dynorphin B; positive control]”, the “staining by mAb D32.39 of beads carrying the sequence” value is recorded as “strongly stained”.

Still in this assay, the particulars now being: flow cytometry; soluble peptide at final concentration 10 μM.
As to `CC(=O)N[C@@H](CCCNC(=N)N)C(=O)N[C@@H](CCC(N)=O)C(=O)N[C@@H](Cc1ccccc1)C(=O)N[C@@H](CCCCN)C(=O)N[C@H](C(=O)N[C@H](C(=O)N[C@H](C(=O)O)[C@@H](C)O)C(C)C)C(C)C` [Ac-RQFKVVT-OH] (Ac-RQFKVVT-OH), the “blocking of D32.39 binding to library beads by preincubating the mAb with soluble peptide” value was “blocked”. On the same count and under the same terms, as for “RQFKVVT (RQFKVVT-NH2) [H-Arg-Gln-Phe-Lys-Val-Val-Thr-NH2, C-terminal seven amino acid fragment of the opioid peptide dynorphin B; positive control]”, the entry is “completely blocked”.

A further assay addresses anti-dynorphin B mAb D32.39.
Experiment: not given
Particulars: soluble hepta-peptide; see Cull et al.; cited from earlier work.
Turning to “RQFKVVT (RQFKVVT-NH2) [H-Arg-Gln-Phe-Lys-Val-Val-Thr-NH2, C-terminal seven amino acid fragment of the opioid peptide dynorphin B; positive control]”, the Kd was approximately 1 nM.

Source of the values: patent publication US5639603A, “Synthesizing and screening molecular diversity” (Affymax Technologies N.V., priority 1993, dated 1997).
